From patent US20190111040A1, “IN VIVO AMELIORATION OF ENDOGENOUS ANTI-TUMOR AUTOANTIBODIES TARGETING SURFACE TUMOR ANTIGENS VIA LOW-DOSE P4N” (THE JOHNS HOPKINS UNIVERSITY, priority 2016, published 2019) come the findings set out here.

Each structure is given as a SMILES string. Counter-ions that a name gives are not always drawn.

The test system of assay [1] is human PBMCs. Description: PBMC proliferation assay. It is filed as cell-based. As to conditions: 48 h. The method, then: PBMC proliferation assay. Two hundred microliters of PBMCs (5×10^4 cells/ml) were seeded in each well of a 96-well culture plate and treated with increasing concentrations of P4N (0.38, 0.75, 1.5, 3 or 6 μM) for 48 h. The number of viable cells was evaluated by MTT assay and a cell proliferation index was calculated as follows: Proliferation index=(OD595 of sample)/(OD595 of the untreated cells)×100%. PBMCs were also treated with or without P4N (0.75, 1.5 or 3 μM) for 48 h, and probed with anti-CD20 antibodies (Roche, Mannheim, Germany) and FITC-conjugated goat anti-human IgG polyclonal antibodies (SouthernBiotech, Birmingham, Ala.). The percentage of B cells in treated PBMCs was determined by flow cytometry (BD Biosciences, Mountain View, Calif.), and the indices of B cell proliferation were calculated as follows: (the number of PBMCs×the percentage of B cells in treated PBMCs)/(the number of PBMCs×the percentage of B cells in untreated PBMCs).

The nature of assay [2]: In vivo effects of P4N on antibody production and B cell differentiation (EGFP immunization). Further details: species or system BALB/c mice. How it is done:
In vivo effects of P4N on antibody production and B cell differentiation. Mice were immunized and boosted with 100 μg EGFP in 100 μl of PBS by intraperitoneal injection once every week and simultaneously treated with or without 5 mg/kg P4N once or three times per week. Blood samples were collected from the retro-orbital plexus of the mice every week. The titers of anti-EGFP antibodies in sera were measured by enzyme-linked immunosorbent assay (ELISA). Briefly, each well of a microtiter plate (Nunc, Wiesbaden, Germany) was coated with 100 ng of rEGFP in 100 μl of PBS. The sera were 6400× diluted by PBS and added to the antigen-coated wells, and their titers were measured as described above. The isotypes of anti-EGFP antibodies in sera were also measured as described previously.
The splenocytes of P4N-treated or untreated mice were harvested and probed with anti-CD19-FITC, anti-CD23-APC, anti-CD38-APC, anti-CD27-APC, anti-CD138-APC, anti-CD5-PE or anti-CD1d-Alexa 647 (BioLegend) antibodies and analyzed by flow cytometry (BD Biosciences). The definitions of the cell types were as described above, except for memory B cells (CD19+CD27+) and plasma cells (CD19+CD138+). The indices of different types of B cell proliferation were calculated as follows: (the number of splenocytes×the percentage of each B cell population in treated splenocytes)/(the number of splenocytes×the percentage of each B cell population in untreated splenocytes).

The test system of assay [3] is human PBMCs. Nature of the assay: Activin A and BAFF expression in human PBMCs. It is filed as cell-based. As to conditions: low dose P4N (3 μM). The method, then:
FIGS. 5A-5F depict the expression of Activin A/BAFF induced by P4N treatments. (A) P4N induced Activin A or BAFF expression in human PBMCs as determined by RT-PCR. S1-S5 display different individual blood samples collected from 5 different human donors; N, no treatment; P, P4N-treatment (3 μM). The change in Activin A and BAFF expression (mean of 5 patients) relative to the control (NC) is plotted as a histogram (B) The effect of increasing dosages of P4N for 12 h on mRNA and protein levels of Activin A or BAFF in THP-1 cells was analyzed by RT-PCR and ELISA. (C) The effect of 6 μM P4N on mRNA and protein levels of Activin A or BAFF in THP-1 cells was determined at a different time period. (D) The effect of different inhibitors on Activin A-induced BAFF expression was examined. The expression of BAFF mRNA in inhibitor-treated THP-1 cells was determined by RT-PCR, and (E) BAFF protein secretion was measured by ELISA. (F) The effect of THP-1 conditioned media on the proliferation of Raji cells and OKT3 hybridoma cells were determined. […] The results are expressed as % viable cells relative to the control (NC, media from untreated THP-1 cells). […]
Reverse transcription PCR. Human PBMCs or THP-1 cells were treated with P4N, and then the mRNA expression of INHBA and BAFF in these cells was measured by reverse transcription PCR. […]

Assay [4] concerns CT26 tumors. Nature of the assay: P4N treatments in vivo, CT-26 tumors in nude mice. As to conditions: immunodeficient nude mice, one intratumoral injection of 2.5 mg/kg or 5 mg/kg. Further details: species or system nude mice (BALB/c/nu). How it is done: P4N treatments in vivo. BALB/c or BALB/c/nu mice (6 week old) were inoculated subcutaneously with 1×10^6 CT-26 cells in 100 μl PBS. When the average tumor mass reached 50 mm^3, the animals were treated with 2.5 mg/kg or 5 mg/kg of P4N in one intratumoral injection. Subsequently, the tumor volumes were measured using a caliper every 2 days, and the volumes were calculated using the following formula: volume (mm^3)=length×width×height. Before sacrifice, the sera of the mice were collected for experimental use.

The subject of assay [5] is CT26 tumors. Nature of the assay: Immunohistochemical staining of tumors after P4N. The assay is classed as in vivo, mice. The source says: Immunohistochemical staining. Tumors isolated from P4N and vehicle-treated mice were embedded in paraffin and thin sections were made and processed for immunohistochemical staining. The sections were probed with rat monoclonal anti-F4/80 (1:50 dilution; GeneTex, Irvine, Calif.) and anti-CD20 (1:200 dilution; Santa Cruz Biotechnology, Dallas, Tex.), hamster monoclonal anti-CD11c (1:25 dilution; GeneTex), rabbit monoclonal anti-CD3 (1:50 dilution; GeneTex), rabbit polyclonal anti-TNF-α and anti-IL-8 antibody (1:50 dilution; Assay BioTech. Sunnyvale, Calif.) at 4° C. overnight, and the detection antibodies were recognized using a horseradish peroxidase (HRP)-conjugated anti-rat, anti-hamster, or anti-rabbit IgG antibody (1/1,500 dilution; Santa Cruz Biotechnology). The immune complexes in the sections were visualized using the LSAB2 system (DAKO, Carpinteria, Calif.). The sections were counterstained with hematoxylin, mounted, observed under a light microscope at a magnification of 400×, and photographed.

For the compound `C[C@H](Cc1ccc(OCCN2CCCCC2)c(OCCN2CCCCC2)c1)[C@@H](C)Cc1ccc(OCCN2CCCCC2)c(OCCN2CCCCC2)c1` [P4N, meso-2,3-dimethyl-1,4-bis(3,4-[2-(piperidino)ethoxyphenyl])butane tetrakishydrochloride salt], in the assay with human PBMCs [1] (depending on the dose of P4N (0.38-6 μM), MTT), the “increase of PBMC proliferation” value is reported as 10-35%. In addition, in the assay with human PBMCs [1] (flow cytometry), the “proliferation of the B cell population in human PBMCs” value is on record as “significantly increased”. In addition, the “total specific anti-EGFP Ig production” value in assay [2] (5 mg/kg P4N once or three times a week with EGFP) is on record as “dramatically enhanced”. For the same compound, the “B cell differentiation to plasma cells” value in assay [2] (compared to EGFP immunization) is on record as “greatly stimulated”. Further, the “IgG1, IgG2b and IgA production” value in assay [2] (immunization with P4N) is “significantly increased”. The “gene expression and protein production of Activin A and BAFF” value with human PBMCs [3] is “increase their gene expression and protein production”. Also, in the assay on CT26 tumors [4], the “growth of CT26 tumors” value was “had no effect”. In addition, the “expression levels of TNF-α and IL-8 in tumors” value in the assay with CT26 tumors [5] (5 mg/kg intratumoral, day 7, both strains of mice) is on record as “enhanced the expression levels”. Further, the “infiltration of immune cells (macrophages, DC, T or B cells) into the tumor area” value in the assay on CT26 tumors [5] (single intratumoral injection 5 mg/kg, day 7, IHC) is on record as “led to the infiltration of immune cells”.
